Results on two compounds are retold here after patent US8741844B2, “Use of mutated antithrombins for treating or preventing coagulation disorders” (Universite Paris-Sud XI, priority 2007, dated 2014).

Data set [1] in a line: Fondaparinux overdose and pharmacokinetics in mice. The settings on record: mouse. It counts as in vivo. As for the experimental part:
1—Determination of the Doses of Fondaparinux Inducing an Overdose in Mice Published data concerning fondaparinux pharmacokinetics in rats (Herbert J 4197), or experimental determination of fondaparinux pharmacokinetics in mice are used to develop the model.
To induce an overdose, a 3 fold doses (300 nmol/kg, or 0.52 mg/kg) is tested. At this dose, the fondaparinux plasma concentration is about 3.5 to 4 nmol/ml (or 6 to 7 mg/L). An anti-Xa activity is determined to ensure that an overdose is obtained.
Anti FXa activity measurements is performed as previously described using a Stachrom Heparin® kit on a STA (Stago, France) or a Rotachrom Heparin® kit with procedure adapted for measurement in microplate reader (Dynatech MR 5000). A calibration curve with pentasaccharide is performed, allowing the expression of the results in nmol/ml (or in mg/L) of plasma.
In mouse, an overdose of fondaparinux is observed at 300 nmol/kg (or 0.52 mg/kg) but maximal concentration in plasma is observed less than 15 min after sub-cutaneous injection.

The conditions of data set [2]: rats, cited from earlier work.
For data set [3] the following is noted: patients, curative pentasaccharide treatment; cited from earlier work.
Data set [4] in a line: Heparin affinity column elution with NaCl gradient. The data set is classed as binding. The method, then: Conditioned media are thawed, pooled, salt concentration adjusted to 0.4 M NaCl and then applied on an heparin immobilized column (Hitrap Heparin 5 ml or Heparin-sepharose CL6B 50 ml, GE Biological) equilibrated with 10 mM Tris, or with 20 mM phosphate buffer, 0.4 M NaCl and 0.1 mM EDTA, pH 7.4. The bound proteins are eluted in the same buffer with a gradient from 0.4 M to 2 M NaCl. The fractions eluted from 0.8 M NaCl and more contained only wild type antithrombin or mutated antithrombins with high heparin affinity. […] The collected fractions are pooled and the salt concentration is decreased either by over night dialysis against 10 mM Tris, or 20 mM phosphate, and 0.1 M NaCl, pH 7.4 at 4° C. or applied on an HiPrep 26/10 desalting column equilibrated with 10 mM Tris, or 20 mM phosphate, and 0.1 M NaCl, pH 7.4. The antithrombin is then concentrated by ion exchange chromatography using a “Resource Q” 1 ml column (GE, Biological) equilibrated with 10 mM Tris, or 20 mM phosphate, and 0.1 M NaCl, pH 7.4 and eluted in the same buffer with a NaCl gradient from […] to 0.5 M or 20 mM to 0.5 M. The antithrombin concentration in each elution fraction is estimated by absorbance at 280 nm with an absorption coefficient ε=0.65 g^−1·l·cm^−1 and the integrity of purified wild type antithrombin or mutated antithrombins is tested by western blotting using the same couple of antibodies as described before, and electrophoresis on 10% acrylamide/bisacrylamide gel in native and denaturing conditions followed by coomassie brilliant blue R-250 staining (FIG. 4). Then, the antithrombin preparation is aliquoted and stored at −80° C. before use for functional assay. The same procedure is used to purify plasma antithrombin (used as internal reference) from human plasma.

Read-outs that look alike come from different tables or passages of the source.

In the case of `CO[C@H]1O[C@H](COS(=O)(=O)O)[C@@H](O[C@@H]2O[C@@H](C(=O)O)[C@@H](O[C@H]3O[C@H](COS(=O)(=O)O)[C@@H](O[C@@H]4O[C@H](C(=O)O)[C@@H](O[C@H]5O[C@H](COS(=O)(=O)O)[C@@H](O)[C@H](O)[C@H]5NS(=O)(=O)O)[C@H](O)[C@H]4O)[C@H](OS(=O)(=O)O)[C@H]3NS(=O)(=O)O)[C@H](O)[C@H]2OS(=O)(=O)O)[C@H](O)[C@H]1NS(=O)(=O)O` [fondaparinux], in data set [1], the “dose at which an overdose is observed” value came out at 0.52 mg/kg. Moreover, the Tmax was 5 min in data set [2] (intra-venous injection of 100 nmol/kg (or 0.17 mg/kg)) and 30 min in data set [2] (subcutaneous injection of 100 nmol/kg (or 0.17 mg/kg)). For the same compound, the “minimal equilibrium concentration in plasma” value in data set [3] was 0.46 to 0.62 mg/L. The “optimal equilibrium concentration in plasma” value in data set [3] is 1.20 to 1.26 mg/L.
Take “AT-N135Q: human antithrombin with substitution of the amino acid at position 135 by Glutamine”: the “elution from heparin affinity column compared with wild type antithrombin” value in data set [4] is reported as “higher ionic strength than wild type antithrombin”.

For orientation: Tmax means the time from dosing to the highest level.
